Results: publication PMC11148080, “Ru(II)-based complexes containing 2-thiouracil derivatives suppress liver cancer stem cells by targeting NF-κB and Akt/mTOR signaling” (Cell Death Discovery, 2024)
Where “and” joins values, the source holds several entries; their conditions need not be identical. Equal entries are not always repeated.

Test system: HepG2 cells
Assay: qPCR array gene expression
Assay type: cell-based, human
Parameters: key to RQ MTOR / RQ GSTP1 / RQ TXN / RQ TXNRD1 / RQ CTSS / RQ TOP2B / RQ NFKB1 / RQ HDAC1 / RQ AURKC / RQ NTN3 / RQ HDAC6 / RQ TNKS: RQ by 2^-ΔΔCT, fold vs 0.2% DMSO calibrator (=1); key to RQ BCL2 / RQ BIRC5 / RQ ERBB2 / RQ ERBB3 / RQ IGF1R / RQ CTSD / RQ ESR1 / RQ CDC25A / RQ HIF1A / RQ CDK9 / RQ MDM2 / RQ TP53 / RQ KRAS / RQ HDAC11 / RQ HDAC8: fold change by 2^-ΔΔCT vs 0.2% DMSO calibrator (=1)
Conditions: 12 h; 8 µM complex 1, 6 µM complex 2
Method: Total RNA was extracted using the RNeasy Plus Mini Kit (Qiagen; Hilden, Germany) following the manufacturer’s instructions. A NanoDrop® 1000 spectrophotometer (Thermo Fisher Scientific, Waltham, Massachusetts, USA) was used to quantify and assess the purity of the RNA. Reverse transcription was performed using the Superscript VILOTM enzyme (Invitrogen Corporation; Waltham, MA, USA), and a TaqMan® array human cancer drug target 96-well plate, fast (ID RPRWENH, Applied BiosystemsTM, Foster City, CA, USA) was used for the gene expression study by qPCR (ABI ViiA7, Applied Biosystems instrument). The cycle conditions were 2 min at 50 °C, 10 min at 95 °C, and 40 cycles of 15 s at 95 °C and 1 min at 60 °C. All the experiments were conducted under DNase/RNase-free conditions. The 2^-ΔΔCT method was used to calculate the relative quantification (RQ) of mRNA expression using Gene Expression SuiteTM Software (Applied BiosystemsTM). Cells treated with the negative control (0.2% DMSO) were used as a calibrator, and the RQs of the reference genes GAPDH, UBC and RPLP0 were used to normalize the responses.

**Q.** With `F[P-](F)(F)(F)(F)F.O=c1cc[nH]c([S][Ru+])n1.c1ccc(-c2ccccn2)nc1.c1ccc(P(c2ccccc2)c2ccccc2)cc1.c1ccc(P(c2ccccc2)c2ccccc2)cc1` [Complex 1, trans-[Ru(2TU)(PPh3)2(bipy)]PF6] as the molecule, how does the “RQ ABCC1” value read?
**A.** 2.226

**Q.** And the “RQ AKT1” value?
**A.** 0.775

**Q.** What about the “RQ AKT2” value of the same molecule?
**A.** 0.889

**Q.** What about the “RQ ATF2” value of the same molecule?
**A.** 1.702

**Q.** And the “RQ AURKA” value?
**A.** 0.691

**Q.** And the “RQ AURKB” value?
**A.** 0.759

**Q.** What about the “RQ AURKC” value of the same molecule?
**A.** 1.565

**Q.** What about the “RQ BCL2” value of the same molecule?
**A.** 1.602

**Q.** And the “RQ BIRC5” value?
**A.** 0.800

**Q.** And the “RQ CDC25A” value?
**A.** 2.454

**Q.** What about the “RQ CDK1” value of the same molecule?
**A.** 0.664

**Q.** And the “RQ CDK2” value?
**A.** 0.777

**Q.** What about the “RQ CDK4” value of the same molecule?
**A.** 1.130

**Q.** And the “RQ CDK5” value?
**A.** 0.572

**Q.** What about the “RQ CDK7” value of the same molecule?
**A.** 2.521

**Q.** And the “RQ CDK8” value?
**A.** 2.592

**Q.** And the “RQ CDK9” value?
**A.** 0.937

**Q.** And the “RQ CTSB” value?
**A.** 0.797

**Q.** And the “RQ CTSD” value?
**A.** 1.503

**Q.** And the “RQ CTSL” value?
**A.** 1.271

**Q.** And the “RQ CTSS” value?
**A.** 1.314

**Q.** And the “RQ EGFR” value?
**A.** 1.217

**Q.** What about the “RQ ERBB2” value of the same molecule?
**A.** 0.682

**Q.** And the “RQ ERBB3” value?
**A.** 0.915

**Q.** And the “RQ ESR1” value?
**A.** 0.564

**Q.** What about the “RQ ESR2” value of the same molecule?
**A.** 2.165

**Q.** What about the “RQ GRB2” value of the same molecule?
**A.** 1.501

**Q.** What about the “RQ GSTP1” value of the same molecule?
**A.** 0.499 and 0.49

**Q.** And the “RQ HDAC1” value?
**A.** 0.833

**Q.** What about the “RQ HDAC2” value of the same molecule?
**A.** 1.190

**Q.** And the “RQ HDAC3” value?
**A.** 0.989

**Q.** And the “RQ HDAC4” value?
**A.** 0.764

**Q.** And the “RQ HDAC6” value?
**A.** 0.564

**Q.** What about the “RQ HDAC7” value of the same molecule?
**A.** 1.008

**Q.** What about the “RQ HDAC8” value of the same molecule?
**A.** 0.970

**Q.** And the “RQ HDAC11” value?
**A.** 1.729

**Q.** What about the “RQ HIF1A” value of the same molecule?
**A.** 3.170

**Q.** And the “RQ HRAS” value?
**A.** 0.753

**Q.** And the “RQ HSP90AA1” value?
**A.** 2.760

**Q.** And the “RQ HSP90B1” value?
**A.** 3.676

**Q.** And the “RQ IGF1R” value?
**A.** 0.916

**Q.** And the “RQ KRAS” value?
**A.** 1.809

**Q.** What about the “RQ MDM2” value of the same molecule?
**A.** 1.685

**Q.** What about the “RQ MDM4” value of the same molecule?
**A.** 2.263

**Q.** What about the “RQ MTOR” value of the same molecule?
**A.** 0.395 and 0.39

**Q.** What about the “RQ NFKB1” value of the same molecule?
**A.** 0.451 and 0.45

**Q.** And the “RQ NRAS” value?
**A.** 0.908

**Q.** And the “RQ NTN3” value?
**A.** 5.849

**Q.** And the “RQ PARP1” value?
**A.** 0.638

**Q.** And the “RQ PARP4” value?
**A.** 0.801

**Q.** What about the “RQ PDGFRB” value of the same molecule?
**A.** 0.964

**Q.** What about the “RQ PGR” value of the same molecule?
**A.** 8.929

**Q.** What about the “RQ PIK3C2A” value of the same molecule?
**A.** 0.855

**Q.** What about the “RQ PIK3C3” value of the same molecule?
**A.** 1.001

**Q.** What about the “RQ PIK3CA” value of the same molecule?
**A.** 0.817

**Q.** What about the “RQ PLK1” value of the same molecule?
**A.** 0.520

**Q.** And the “RQ PLK2” value?
**A.** 1.630

**Q.** What about the “RQ PLK3” value of the same molecule?
**A.** 2.378

**Q.** And the “RQ PLK4” value?
**A.** 0.743

**Q.** What about the “RQ PRKCA” value of the same molecule?
**A.** 1.667

**Q.** And the “RQ PRKCB” value?
**A.** 0.327

**Q.** And the “RQ PRKCD” value?
**A.** 0.661

**Q.** And the “RQ PRKCE” value?
**A.** 2.615

**Q.** What about the “RQ PTGS2” value of the same molecule?
**A.** 7.499

**Q.** And the “RQ RHOA” value?
**A.** 0.642

**Q.** What about the “RQ RHOB” value of the same molecule?
**A.** 0.437

**Q.** And the “RQ TERT” value?
**A.** 0.604

**Q.** What about the “RQ TNKS” value of the same molecule?
**A.** 3.189

**Q.** What about the “RQ TOP2A” value of the same molecule?
**A.** 0.469

**Q.** And the “RQ TOP2B” value?
**A.** 0.499

**Q.** And the “RQ TP53” value?
**A.** 1.021

**Q.** What about the “RQ TXN” value of the same molecule?
**A.** 0.546

**Q.** And the “RQ TXNRD1” value?
**A.** 1.341
